From US20260137700A1, “PHARMACEUTICAL COMBINATION OF PRMT5 INHIBITOR AND DNA DAMAGE-INDUCING SUBSTANCE” (SK Biopharmaceuticals Co., Ltd., priority 2022, published 2026)

Legend:
[1] = test system: symmetric dimethyl arginine (SDMA); assay: In vivo target inhibition: SDMA ELISA in tumor samples of the Mia PaCa-2 xenograft mouse model; details: co-administration with 60 mg/kg gemcitabine
Experimental: Quantitative reduction levels of symmetric dimethyl arginine (SDMA) in tumor samples harvested from a subcutaneous xenograft mouse model of Mia PaCa-2 were measured by enzyme-linked immunosorbent assay (ELISA).
Reagents: Bradford solution (catalog no. 500-0006) was purchased from Bio-rad (USA). SDMA antibody (catalog no. 13222s) was purchased from Cell signaling Technology (USA). SmD3 antibody (catalog no. ap12451a) was purchased from Abgent (USA). Secondary antibody (catalog no. ab6721) and TMB substrate (catalog no. ab210902) were purchased from Abcam (UK).
Experimental procedure: Tumor tissue transplanted into mice was extracted, cells were lysed, and quantified with Bradford solution. […] of protein per sample was diluted with carbonate-bicarbonate buffer, dispensed into a 96-well plate, and reacted at room temperature for 2 hours. After washing three times with phosphate-buffered saline (PBST) containing 0.05% Tween-20, 200 μL of PBST containing 5% bovine serum albumin (BSA) (BSA-PBST) was added, and reacted at room temperature for 2 hours. After washing three times with PBST, 100 μL of SDMA antibody and SmD3 antibody were diluted in BSA-PBST, each was dispensed, and reacted overnight at 4° C. After washing three times with PBST on next day, 100 μL of secondary antibody diluted in BSA-PBST was added, and reacted at room temperature for 1 hour. After washing three times with PBST, 100 μL of TMB substrate was added and reacted at room temperature for 10-20 minutes, and 100 μL of 1N sulfuric acid solution was added to terminate the reaction. Then, the degree of SDMA inhibition by the compound was calculated by measuring the absorbance at 450 nm.

[2] = test system: cancer cell lines of Table 2 (A549, A549/CR, A549/PR, CAPAN-1, NCI-H1048, MDA-MB-231, Mia PaCa-2, SNU-324, OVCAR3, PA-1, PANC-1, U-87 MG); assay: Cell viability assay (WST) with combination synergy analysis (Bliss score); assay type: cell-based, human; details: combination with various DNA damage inducers, FIGS. 1 to 25; culture ended on days 7 to 9
Experimental: Most cell lines were obtained from the American Type Culture Collection (ATCC) or the Korean Cell Line Bank (KCLB). Combination experiments in cisplatin-resistant and paclitaxel-resistant cell lines were performed at the Asan Preclinical Evaluation center for cancer therapeutiX of Asan Medical Center, Seoul. All cell lines were maintained in appropriate growth medium for the cell line in 100-pi dishes oRT75 (75 cm2) flasks, cultured at 37° C. with 5% CO2, and passaged every 3-4 days. Growth medium conditions and cell line information are listed in Table 2, and the cells were counted using Countess (Invitrogen) to obtain the number of viable cells. Mutation and HRD status by cell type are described in Table 3.
The next day, compound-87 was diluted 1/2 to 1/4 to a concentration of 20 μM to 0.002 μM and treated at a set concentration range, and the co-administered drug was diluted 1/2 to 1/3 to a concentration of 100 μM to 0.00046 μM and treated at a 1:1 (v/v) ratio. Finally, the treatment ratio of compound-87 and the co-administered substance was between 1:20000 and 1:0.00015, and in clinical practice, compound-87: drug to be co-administered can be treated at a ratio of 1:10000 to 1:0.0001.
PANC-1 (wild-type BRCA1/BRCA2) pancreatic cancer cells were treated with compound-87 at concentrations of […], and E7016, a PARP inhibitor as a co-administered agent at concentration of 0.078, 0.156, 0.313, 0.625, 1.25, 2.5, 5, or 10 μM (FIG. 25). Cell culture was terminated on days 7 to 9, and cell viability and synergistic effect were evaluated for each combination of concentrations.
Cell viability was measured by a colorimetric assay using water-soluble tetrazolium salt (WST). […]
Results are normalized to DMSO-treated groups as 100% and expressed as the percent of viable cells upon compound addition. […]
The synergy of each compound was analyzed using Combenefit software (Cambridge Research UK, Cambridge Institute, University of Cambridge, United Kingdom), and synergy was evaluated by using Blliss (Ref: Di Veroli et al., 2016, Bioinformatics 32(18):2866-2868). […]

[3] = test system: human small cell lung cancer cells NCI-H1048; assay: Subcutaneous xenograft mouse model of NCI-H1048 small cell lung cancer cells, tumor growth inhibition; assay type: in vivo; details: day 23; cisplatin alone, 4 mg/kg intraperitoneally once a week
Experimental: For in vivo efficacy study in a subcutaneous xenograft mouse model of human small cell lung cancer cells NCI-H1048, co-administration of compound-87 as a PRMT5 inhibitor according to an example of the present invention and cisplatin as an alkylating agent of a chemotherapeutic agent, was performed. To produce a small cell lung cancer xenograft model, 10 million of NCI-H1048 cells were injected subcutaneously into the right flank of female nude mice, and tumor growth was monitored.
To evaluate the anticancer effect, when the tumor volume reached approximately 162 mm^3 on average, the mice were divided into four groups. The all group included a solvent-treated group (Vehicle 1 (Compound-87)+Vehicle 2 (cisplatin) group), a Compound-87 monotherapy group (50 mg/kg), a cisplatin monotherapy group (4 mg/kg), and combination therapy group of Compound-87 and cisplatin. The Compound-87 treatment group was administered orally on a 3-day administration/4-day non-administration schedule, and cisplatin was administered intraperitoneally once a week for 22 days (Day 1-Day 23). All mice were euthanized on Day 22 (Day 23).

[4] = test system: CTG-1932, a human non-small cell lung cancer patient-derived cell line; assay: Subcutaneous xenograft mouse model of patient-derived CTG-1932 non-small cell lung cancer, tumor growth inhibition; assay type: in vivo; details: day 9; paclitaxel 20 mg/kg i.p. once a week, single treatment; significant
Experimental: For in vivo efficacy studies in a subcutaneous xenograft mouse model of CTG-1932, a human non-small cell lung cancer patient-derived cell line, combination therapy of compound-87 as a PRMT5 inhibitor according to one example of the present invention and with paclitaxel as a chemotherapy agent, was performed at Champions Oncology (USA).
To produce a non-small cell lung cancer xenograft model, CTG-1932 tumor stock was grown and harvested from primary mice and then transplanted subcutaneously into the left flank of immunocompromised female mice as a 5×5×5 mm^3 tumor fragment. When the tumor volume reached approximately 150-300 mm^3, the mice were separated into four groups of 10 each. All group consisted of a solvent-treated group (vehicle group), a compound-87 monotherapy group (50 mg/kg, oral administration, 3 days on/4 days off), a paclitaxel monotherapy group (20 mg/kg, intraperitoneal administration once a week), and combination treatment group of compound-87 (50 mg/kg, oral administration, 3 days on/4 days off) and paclitaxel (20 mg/kg, intraperitoneal administration once a week). tumor volume and body weight were measured twice a week.

[5] = test system: glioblastoma; details: glioblastoma chemotherapy; cited from earlier work

CC(=O)N1CCC(Oc2ccc3c(c2)OCCN(C[C@H](O)CN2CCc4ccccc4C2)C3=O)CC1 [Compound-78, 8-[(1-acetyl-4-piperidyl)oxy]-4-[(2R)-3-(3,4-dihydro-1H-isoquinolin-2-yl)-2-hydroxy-propyl]-2,3-dihydro-1,4-benzoxazepin-5-one]
SDMA amount in tumor samples compared to the vehicle group ([1]; 25 mg/kg): 33.5%
SDMA amount in tumor samples compared to the vehicle group ([1]; 50 mg/kg): 24.9%
inhibition at 25 mg/kg ([1]; Mus musculus, MIA PaCa-2, 25 mg/kg): 66.5%
inhibition at 50 mg/kg ([1]; Mus musculus, MIA PaCa-2, 50 mg/kg): 75.1%

CN1CCC(Oc2ccc3c(c2)OC(C)(C)CN(C[C@H](O)CN2CCc4ccccc4C2)C3=O)CC1 [Compound-112, 4-[(2R)-3-(3,4-dihydro-1H-isoquinolin-2-yl)-2-hydroxy-propyl]-2,2-dimethyl-8-[(1-methyl-4-piperidyl)oxy]-3H-1,4-benzoxazepin-5-one]
inhibition of cell viability, combination treatment compared to single agent [2]: enhanced inhibition effects of cell viability

O=C1c2ccc(O[C@@H]3CCN(C4COC4)C3)cc2OCCN1C[C@H](O)CN1CCc2ccccc2C1 [Compound-271, 4-[(2R)-3-(3,4-dihydro-1H-isoquinolin-2-yl)-2-hydroxy-propyl]-8-[(3R)-1-(oxetan-3-yl)pyrrolidin-3-yl]oxy-2,3-dihydro-1,4-benzoxazepin-5-one]
inhibition of cell viability, combination treatment compared to single agent [2]: enhanced inhibition effects of cell viability

N.N.[Cl][Pt][Cl] [cisplatin, azane; dichloroplatinum, reference compound]
tumor growth inhibition rate [3]: 62.9%

CC(=O)O[C@H]1C(=O)[C@@]2(C)[C@H]([C@H](OC(=O)c3ccccc3)[C@]3(O)C[C@H](OC(=O)[C@H](O)[C@@H](NC(=O)c4ccccc4)c4ccccc4)C(C)=C1C3(C)C)[C@]1(OC(C)=O)CO[C@@H]1C[C@@H]2O [paclitaxel, [(1S,2S,3R,4S,7R,9S,10S,12R,15S)-4,12-diacetyloxy-15-[(2R,3S)-3-benzamido-2-hydroxy-3-phenylpropanoyl]oxy-1,9-dihydroxy-10,14,17,17-tetramethyl-11-oxo-6-oxatetracyclo[11.3.1.03,10.04,7]heptadeca-13-en-2-yl]benzoate, reference compound]
tumor growth inhibition compared to the solvent-treated group [4]: 75%

Cn1nnc2c(C(N)=O)ncn2c1=O [temozolomide, 3-methyl-4-oxoimidazo[5,1-d][1,2,3,5]tetrazine-8-carboxamide]
average survival [5]: ≤ 14.5 months
